Measurements as given in a melting point compilation (Tetko et al.; mined from patent text by program, amines drawn as free bases though some values may be those of a salt).

Row | Structure (SMILES) | melting point
1 | O=C1CC2CCC(=O)N2c2cc(O)cc(O)c21 (stereo not given) | 254 to 256 °C
2 | CC1CCc2cc3c(cc21)OCC(=O)CO3 (stereo not given) | 79 to 80 °C
3 | CNc1nc(C)c(C)cc1NC(=O)N1CCN(c2cc(OC)cc(OC)c2)CC1 | 150 to 151 °C
4 | CCC(=O)c1ccc(OC(C)(C)C(=O)OC)cc1 | 47 to 49 °C
5 | CCc1nc(Cl)c([N+](=O)[O-])c(NC2CC2)n1 | 61 to 62 °C
6 | COc1cc2ncnc(N3CCC(C(=O)CN4C=CC(C)=NS4(=O)=O)CC3)c2cc1OC | 172 to 175 °C
7 | CN1Cc2ccccc2C(c2ccccc2)N=C1Cc1ccc(NS(C)(=O)=O)cc1 (stereo not given) | 182 to 185 °C
8 | Cc1cc(C(=O)Nc2ccc(C(=O)O)cc2)on1 | > 300 °C
9 | CC(C)(C)OC(=O)[C@H]1C[C@@H](C(=O)OCc2ccccc2)[C@@H](c2ccccc2)N1 (racemic) | 70 °C
10 | NC(=O)N(O)Cc1ccc(Oc2ccc(-n3ccnc3)cc2)o1 | 155 °C
11 | Nc1cc(Br)ccc1C(=O)NCc1ccc(Br)cc1F | 143 to 144 °C
12 | CCc1cc(-c2ccc(OC)cc2)ccc1[N+](=O)[O-] | 94 to 95 °C
13 | CC(C)(C)c1ncc2cc(Cl)nc(Cl)n12 | 109 to 110 °C
14 | CC(C)NC(=O)c1ccc(-c2ccc3nnn(Cc4ccc5ncccc5c4)c3n2)cc1F | 177 to 179 °C
15 | CSCC(C)(C)NC(=O)c1c(NC(=O)c2cc(C(F)(F)F)nn2-c2ncccc2Cl)c(Cl)cc2cn[nH]c12 | 100 to 105 °C
16 | O=C(CCNc1c(C(=O)O)[nH]c2cc(Cl)cc(Cl)c12)c1ccc(Cl)cc1 | 279 to 283 °C
17 | CC1(C(=O)Nc2ccc(Oc3ccc(Cl)cc3)c(C(F)(F)F)c2)CC1 | 115 to 117 °C
18 | COCC1CN(c2ccc(C3CCNCC3)cc2)C(=O)O1 (racemic) | 161 to 163 °C
19 | CCON=C(C(C)=NO)c1ccc(OC[Si](C)(C)c2ccc(F)cc2)cc1 | 100 to 102 °C

Row | Structure (SMILES) | melting point
20 | CCOc1cc2c(cc1OCC)C(c1cccc(N)c1)=NN=C(C)C2 | 133 to 134 °C
21 | COC1(c2cc(F)cc(Sc3ccc(/C(C)=N/O)c(OCc4ccccc4)c3)c2)CCOCC1 | 130 to 131 °C
22 | O=C(C=Cc1ccccc1Sc1ccc(Cl)cc1)N1CCCC1=O | 144 to 147 °C
23 | CCS(=O)CC(O)(C(=O)Nc1ccc(C#N)c(C(F)(F)F)c1)C(F)(F)F (stereo not given) | 141 to 143 °C
24 | CN(C)C1(c2ccccc2)CCC2(CC1)NCCc1c2[nH]c2ccc(-c3ccncc3)cc12 (stereo not given) | 190 to 197 °C
25 | Cc1c(C(=O)Nc2ccc(N3CCN(CCO)CC3)c(C#N)c2)cnn1-c1ccc(Cl)c(Cl)c1 | 195 to 197 °C
26 | C=CCc1cc2c(c(O)c1C)C(=O)c1c(OC)c3c(c(O)c1C2=O)-c1c(cc2cnn(-c4ccccc4)c(=O)c2c1O)CC3 | 163 °C
27 | CC(C)(C)c1ccc(C[C@@H](NC(=O)c2cccc3c2C=CCCC3)[C@@H](O)c2ccc(F)cc2)cc1 (racemic) | 140 to 142 °C
28 | CS(=O)(=O)Nc1ccc(CO)cc1Sc1ccc(F)cc1F | 78 to 79 °C
29 | CCC(Oc1cccc(OC)c1)C(=O)NCc1ccccc1 (stereo not given) | 63 to 64 °C
30 | CC(C)Nc1cccnc1N1CCN(C(=O)c2ccc(C(=O)N(CCO)CCO)cc2)CC1 | 161 to 162 °C
31 | CCOC(=O)C1=C(C)Nc2nc(N3CCOCC3)nc(N3CCOCC3)c2C1c1ccccc1[N+](=O)[O-] (stereo not given) | 201 °C
32 | CCOC(=O)[C@H](CC(C)C)NC(=O)[C@@H]1CCCN1C(=O)OCc1ccccc1 | 60 to 64 °C
33 | COc1c(Cl)cc(F)c(I)c1F | 62 to 64 °C
34 | CS(=O)(=O)c1ccc(-c2oc(CCC(N)=O)nc2-c2ccc(F)cc2)cc1 | 193 to 195 °C
35 | NC(=O)N1C(=O)C(C(=O)c2cccs2)c2nc(Cl)c(Cl)cc21 (stereo not given) | 237 to 240 °C
36 | CC(O)c1cccc(NC(=O)NCC(=O)N(c2ccccc2)C(C)C(=O)N2CCCC(C)(C)C2)c1 (mixture of isomers) | 186 °C
37 | Cc1cn(C2CC(OP(N)O)C(CO[Si](C)(C)C(C)(C)C)O2)c(=O)[nH]c1=O (stereo not given) | 68 to 70 °C
38 | Cc1c(CC(=O)O)c2cc3c(cc2n1C(=O)c1ccc(Cl)cc1)OCO3 | 190 to 191 °C

Row | Structure (SMILES) | melting point
39 | CC12CCC3C(CCC4C(O)CCCC43C)C1CCC2OC1CCCCO1 (stereo not given) | 167 to 170 °C
40 | COc1cc(C(C)C)c2c(c1)S(=O)(=O)N(COC(=O)c1cccc(O)c1)C2=O | 71 to 73 °C
41 | CCOP(=O)(O)Cc1cccc(C(F)(F)F)c1 | 48 to 51 °C
42 | CCOC(=O)CC(=O)c1cccc([N+](=O)[O-])c1C | 50 to 51 °C
43 | CCOC(=O)c1cc2sc(C)c(N(C)S(=O)(=O)c3cccs3)c2[nH]1 | 161 °C
44 | Cc1cc(-n2ccnc2)c2cccc(OCc3c(Cl)ccc(S(=O)(=O)N4CCC[C@H]4C(=O)NCC4CCNCC4)c3Cl)c2n1 | 150 °C
45 | CN1Cc2c(C(N)=O)ncn2-c2ccsc2C1=O | 294 to 296 °C
46 | CC(C)NC(C(N)=S)c1ccccc1 (stereo not given) | 98.6 °C
47 | Cc1ccc2ccc(Cn3c(=S)sc4ccccc43)c(O)c2n1 | 211 to 215 °C
48 | Cc1ccccc1NC1=CC(=O)NCC1 | 155 to 158 °C
49 | Cc1cccc2ncc(C(=O)NCc3ccc(Cl)cc3)c(O)c12 | 205 to 206 °C
50 | O=c1c2ccccc2oc2cc(-c3nnn[nH]3)ccc12 | 296 °C
51 | O=C(Cl)CC(c1ccccc1)(c1ccccc1)c1ccccc1 | 182 °C
52 | O=C(O)c1c(F)c(Cl)c(O)c(Cl)c1F | 102 to 105 °C
53 | CC(O)(c1ccccc1)C1CCN1C(c1ccccc1)c1ccccc1 (stereo not given) | 152 to 154 °C
54 | CSc1c(F)cc(C(=O)CBr)cc1F | 30.5 to 33.2 °C
55 | CN1C2=C(CSC2)C(=O)Nc2ccccc21 | 196 to 198 °C
56 | Nc1ccc(S(=O)(=O)Nc2ccn(C3CCCC3)c(=O)n2)cc1 | 167 to 171 °C

Results, then the compound that gave them:

Row | melting point | Structure (SMILES)
57 | 160 to 161 °C | CC(C)CCCC(C)C1CCC2C3=CCC4C(C)(C)C(OC(=O)c5ccccc5)CCC4(C)C3CCC21C (stereo not given)
58 | 122 to 124 °C | CCOC1CC2(C)C(CCC3C4CCC(C(=O)OC)C4(C)CC(NCCC(C)C)C32)CC1O (stereo not given)
59 | 121 to 124 °C | CCN(C)C(N)=C(C#N)C(N)=S
60 | 98 °C | CC(=S)c1cncn1C(c1ccccc1)c1ccccc1
61 | 136 °C | CC(C)[C@]1(c2ccccc2OCC#CCCl)Sc2ccccc2N(C)C1=O
62 | 187 °C | Cc1cccc(C(=O)O)c1NC(=O)/C=C1\SCC(=O)N1C
63 | 104 °C | CCOC(=O)N1CCc2nc3ccccc3c(Cl)c2CC1
64 | 52 to 54 °C | COC(=O)c1sc(C)c(C)c1O
65 | 96 °C | C[C@H]1C[C@H](OC(=O)C(C)(C)Oc2ccc(-c3ccccc3)cc2)CC(C)(C)C1 (relative stereo)
66 | 136 to 137 °C | CN(NC(=O)c1ccccc1CO)C(=S)Nc1cccc(F)c1
67 | 199 to 201 °C | CC(=O)Oc1ccc([C@@H]2SC(C)(C)[C@H](C(=O)O)N2C(C)=O)cc1
68 | 100 to 102 °C | CCOC(=O)N1CCN(c2cc3nc(C(C)(C)C)sc3cc2[N+](=O)[O-])CC1
69 | 98 °C | COc1ccc(N=C(C#Cc2ccccc2)N2CCN(Cc3ccc(F)cc3)CC2)cc1
70 | 128 to 134 °C | CS(=O)(=O)NCCCn1c(-c2ccc(Br)cc2)csc1=Nc1ccccc1
71 | 137 °C | CCOc1ccc2c(c1)C(C)(c1ccccc1Cl)C(=O)N2S(=O)(=O)c1ccc(NC(=O)N(CC)CC)cc1OC (stereo not given)
72 | 91 to 94 °C | Cc1nc(C(C)C)c(Sc2cccc(Cl)c2)[nH]1
73 | 113 to 114 °C | COC(=O)c1cc([N+](=O)[O-])cc([N+](=O)[O-])c1SCc1ccccc1
74 | > 300 °C | COc1cc2[nH]c(=O)c(C(=O)O)nc2cc1-n1ccc(CNC(=O)Nc2ccc(C(=O)O)cc2)c1
75 | 235 °C | CCOP(=O)(O)C(=Nc1ccc(-c2c[nH]cn2)cc1)NC(C)C
76 | 198 °C | O=C(O)c1cn2c(nc1=O)CCCCC2
77 | 49 to 52 °C | CC(=S)OC(c1ccccc1)C1(C)OCCO1 (stereo not given)
78 | 153 to 154 °C | Cc1cc(C(C)C(=O)O)n(C)c1C(=O)c1ccc(Cl)cc1 (stereo not given)

Row | melting point | Structure (SMILES)
79 | 94 to 96 °C | Cc1c(Cl)c(Oc2ncc(C(F)(F)F)cc2Cl)nn1C(=O)NC1CCCCC1
80 | 75 to 77 °C | CC(=O)OCc1c(C)cc(C)c(NC(=O)c2sccc2S(=O)(=O)Nc2onc(C)c2C)c1C
81 | 194 to 196 °C | O=c1nc(-c2ccc(NCc3ccccc3)nc2)sc2ccccc12
82 | 90 °C | BrCC1(c2ccc3c(c2)Cc2ccccc2-3)OCCO1
83 | 92 to 94 °C | [N-]=[N+]=NCc1ccc(C(=O)c2c(Cl)cccc2Cl)cc1
84 | 185 to 187 °C | CCc1cccc(C)c1NC(=O)N=C1NCCN1
85 | 161 to 167 °C | O=C(/C=C/c1ccn(S(=O)(=O)c2ccc(-n3cccn3)cc2)c1)NO
86 | 241 to 243 °C | COn1c(-c2ccccc2)nc2c(N)nc3ccccc3c21
87 | 134 to 136 °C | CCCCNc1c(C(=O)OCC)cnc(O)c1C(C)=O
88 | 55 to 58 °C | CCOC(=O)C(=O)Nc1ccc(Cl)cc1C(F)(F)F
89 | 224 to 226 °C | COc1cc(C#N)c(C(C)=O)cc1[N+](=O)[O-]
90 | 206 °C | N#Cc1c(N)nc2ccc(N3CCN(Cc4ccccc4)CC3)cc2c1Cl
91 | 192 °C | CCCC(CC(=O)Nc1cc(C(N)=O)ccc1C(C)(C)C)c1ccc(OC)cc1OC (stereo not given)
92 | 266 °C | CN1CCN(c2cc3c(cc2F)c(=O)c(C(=O)O)cn3Cc2ccccc2)CC1
93 | 88 to 95 °C | CC(C)c1cccc(C(C)C)c1NC(=O)CN
94 | 121 to 122 °C | COc1ccc(C=Cc2cccc(C#N)n2)cc1
95 | 100 to 101 °C | CCOC(=O)C=Cc1c(OC)cncc1OC
96 | 160 to 161 °C | Cc1ccnc2c(Oc3ccccc3N)cccc12
97 | 156 to 157 °C | CC1(C)CCC(C)(C)c2c1ccc(CS(=O)(=O)c1ccccc1)c2N
98 | 165 to 166 °C | O=S(=O)(NCC(O)(Cn1cncn1)c1ccc(Cl)cc1Cl)c1ccc(C(F)(F)F)cc1 (stereo not given)
99 | 131 to 132 °C | Cc1cccnc1-n1c(=S)nc2c(C)cccn2c1=S
100 | 156 °C | Cn1cnc(COc2ccc(-c3cc(-c4nc(C(C)(C)C)[nH]c4-c4ccccn4)ccn3)cc2)c1
